“And” between values parts separate entries of the source, which are not always exact repeats. Identical values can stand only once. Like-named read-outs stand apart in the source and are kept apart here.
Target: recombinant RSV L+P (Human respiratory syncytial virus A, UniProt P28887)
Assay: Primed single nucleotide incorporation (SNI) gel assay, recombinant RSV L+P
Format: biochemical, Human RSV (strain A2)
Conditions: for pGCG formation, % inhbition / pGCGA formation, % inhbition / pGCGAA formation, % inhbition: le-11, +3 site
Protocol: RNA polymerase reaction samples consisted of 0.2 μM recombinant RSV L-P polymerase, 0.2 μM of an RNA template (Le11 or Tr14), and 400 μM of a short primer (sequences as indicated in the figures), mixed in a buffer containing 50 mM Tris pH 7.4, 2 mM dithiothreitol and 6 mM MgCl2. For the assay in Fig. 1d, reactions were started by adding 100 nM [α-^32P]GTP (3000 Ci/mmol) tracer and incubated at 30 °C for 10 min. […] Reactions were stopped by adding an equal volume of gel loading buffer containing 90% formamide, 50 mM EDTA, 0.05% Xylene Cyanol, and Bromophenol Blue. Samples were denatured at 95 °C for 5 min and run on a 22.5% polyacrylamide urea sequencing gel at 80 W. The gel was transferred onto a Whatman cellulose chromatography paper (Millipore Sigma) and dried on a gel dryer (Bio-Rad) for 1 h. The dried gel was exposed to a phosphor-screen, scanned on a Typhoon phosphorimager (GE Healthcare), and quantified using ImageQuant (GE Healthcare).

[1] = le-11, +1 site, 1 uM, replicates, 1 µM
[2] = tr-14, +1 site, 0.00390625 uM, replicates, 0.00390625 µM
[3] = tr-14, +1 site, 0.0078125 uM, replicates, 0.0078125 µM
[4] = tr-14, +1 site, 0.015625 uM, replicates, 0.015625 µM
[5] = tr-14, +1 site, 0.03125 uM, replicates, 0.03125 µM
[6] = tr-14, +1 site, 0.0625 uM, replicates, 0.0625 µM
[7] = tr-14, +1 site, 0.125 uM, replicates, 0.125 µM
[8] = tr-14, +1 site, 0.25 uM, replicates, 0.25 µM
[9] = tr-14, +1 site, 0.5 uM, replicates, 0.5 µM
[10] = tr-14, +1 site, 1 uM, replicates, 1 µM

Sequence of recombinant RSV L+P (P28887 whole entry): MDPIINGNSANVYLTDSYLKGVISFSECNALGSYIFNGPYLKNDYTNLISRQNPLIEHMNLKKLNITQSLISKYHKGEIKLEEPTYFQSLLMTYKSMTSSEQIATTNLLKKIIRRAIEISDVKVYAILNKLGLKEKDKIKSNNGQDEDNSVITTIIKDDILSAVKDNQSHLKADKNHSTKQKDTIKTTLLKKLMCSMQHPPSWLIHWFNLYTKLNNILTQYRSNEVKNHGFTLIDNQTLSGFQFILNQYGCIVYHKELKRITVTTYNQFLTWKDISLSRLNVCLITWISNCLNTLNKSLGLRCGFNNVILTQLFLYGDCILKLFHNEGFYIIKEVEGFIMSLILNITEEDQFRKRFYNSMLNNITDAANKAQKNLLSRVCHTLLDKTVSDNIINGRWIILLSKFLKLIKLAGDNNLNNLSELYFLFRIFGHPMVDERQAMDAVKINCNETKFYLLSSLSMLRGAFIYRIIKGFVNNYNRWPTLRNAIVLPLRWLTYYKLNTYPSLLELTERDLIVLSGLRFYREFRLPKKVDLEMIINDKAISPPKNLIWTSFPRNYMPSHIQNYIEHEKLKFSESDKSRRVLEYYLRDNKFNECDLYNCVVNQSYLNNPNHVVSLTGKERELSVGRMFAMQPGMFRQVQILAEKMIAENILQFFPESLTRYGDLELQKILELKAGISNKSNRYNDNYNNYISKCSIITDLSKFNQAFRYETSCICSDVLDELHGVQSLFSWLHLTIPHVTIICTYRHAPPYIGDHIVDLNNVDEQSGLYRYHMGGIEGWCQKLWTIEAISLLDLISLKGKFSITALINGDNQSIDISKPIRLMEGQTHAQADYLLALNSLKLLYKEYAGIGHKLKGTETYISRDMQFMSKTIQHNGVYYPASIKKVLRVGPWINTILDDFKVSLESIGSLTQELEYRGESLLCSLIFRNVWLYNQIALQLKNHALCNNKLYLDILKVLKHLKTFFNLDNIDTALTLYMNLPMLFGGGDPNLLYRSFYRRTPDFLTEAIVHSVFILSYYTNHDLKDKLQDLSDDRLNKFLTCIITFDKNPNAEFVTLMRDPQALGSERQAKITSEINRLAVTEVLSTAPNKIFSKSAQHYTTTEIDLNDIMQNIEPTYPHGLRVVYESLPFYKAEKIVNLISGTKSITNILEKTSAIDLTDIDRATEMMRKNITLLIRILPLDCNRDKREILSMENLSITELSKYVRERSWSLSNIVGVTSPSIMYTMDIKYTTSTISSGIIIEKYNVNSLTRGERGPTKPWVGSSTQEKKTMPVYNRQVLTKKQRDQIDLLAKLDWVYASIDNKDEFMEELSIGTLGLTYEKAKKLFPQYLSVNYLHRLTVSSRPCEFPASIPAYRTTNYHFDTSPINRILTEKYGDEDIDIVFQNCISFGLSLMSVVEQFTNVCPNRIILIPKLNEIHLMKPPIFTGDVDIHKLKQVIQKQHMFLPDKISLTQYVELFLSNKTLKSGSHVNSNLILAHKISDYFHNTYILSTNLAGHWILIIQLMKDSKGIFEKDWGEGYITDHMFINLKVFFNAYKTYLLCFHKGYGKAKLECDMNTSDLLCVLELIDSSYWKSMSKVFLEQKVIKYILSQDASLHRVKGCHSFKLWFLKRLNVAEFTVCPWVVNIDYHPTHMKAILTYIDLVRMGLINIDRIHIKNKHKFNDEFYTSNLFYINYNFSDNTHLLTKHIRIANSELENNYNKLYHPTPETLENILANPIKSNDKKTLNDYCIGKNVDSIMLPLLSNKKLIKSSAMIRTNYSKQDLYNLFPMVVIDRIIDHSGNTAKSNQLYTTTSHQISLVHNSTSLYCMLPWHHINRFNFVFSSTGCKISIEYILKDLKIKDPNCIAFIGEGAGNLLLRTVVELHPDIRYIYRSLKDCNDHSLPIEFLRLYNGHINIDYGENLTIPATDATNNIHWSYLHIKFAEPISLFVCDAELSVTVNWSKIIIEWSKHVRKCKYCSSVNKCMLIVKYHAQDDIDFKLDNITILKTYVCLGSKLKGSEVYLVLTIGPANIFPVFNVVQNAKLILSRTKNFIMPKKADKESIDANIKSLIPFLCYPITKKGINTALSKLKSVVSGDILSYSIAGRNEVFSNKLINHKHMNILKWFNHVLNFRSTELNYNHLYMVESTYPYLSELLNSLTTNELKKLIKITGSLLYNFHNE
Sequence of recombinant RSV L+P (P03421 whole entry, further chain): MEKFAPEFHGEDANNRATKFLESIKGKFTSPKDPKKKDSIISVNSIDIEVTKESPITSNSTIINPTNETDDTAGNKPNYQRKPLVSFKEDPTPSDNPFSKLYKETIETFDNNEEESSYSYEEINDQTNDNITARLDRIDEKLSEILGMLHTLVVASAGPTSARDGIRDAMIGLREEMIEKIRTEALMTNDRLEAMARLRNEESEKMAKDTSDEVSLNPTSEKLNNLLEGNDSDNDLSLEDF

With `COc1cc(C(=O)NC[C@](O)(c2cc(C(C)(C)O)c(F)c(-c3ccc(F)cc3)n2)C(F)(F)F)cc2cc(C)nnc12` [JNJ-8003] the inhibition at 0.5 µM (le-11, +1 site, 0.5 uM, replicates, read-out: pACG formation, % inhibition) was 92.2%, the inhibition at 0.5 µM (le-11, +1 site, 0.5 uM, replicates, read-out: pACGC formation, % inhibition) was 16.5% and the inhibition at 0.5 µM (le-11, +1 site, 0.5 uM, replicates, read-out: pACGCG formation, % inhibition) was 92%. The “pACG formation, % inhibition” value [1] was 87.3809%, the “pACGCG formation, % inhibition” value [1] was 94.5412% and the inhibition at 1 µM (le-11, +1 site, 1 uM, replicates, read-out: pACG formation, % inhibition) was 92.2%. For the same compound, the inhibition at 1 µM (le-11, +1 site, 1 uM, replicates, read-out: pACGC formation, % inhibition) was 32.4%, the inhibition at 1 µM (le-11, +1 site, 1 uM, replicates, read-out: pACGCG formation, % inhibition) was 96.1% and the “pGCG formation, % inhbition” value (0.00390625 uM, replicates) was 23.7355% and 15.5622%. The “pGCGA formation, % inhbition” value (0.00390625 uM, replicates) was 16.5629% and 19.135%, the “pGCGAA formation, % inhbition” value (0.00390625 uM, replicates) was 30.4505% and 24.1004% and the “pGCG formation, % inhbition” value (0.0078125 uM, replicates) was 29.8775% and 21.4895%. The “pGCGA formation, % inhbition” value (0.0078125 uM, replicates) was 17.4928% and 21.885%, the “pGCGAA formation, % inhbition” value (0.0078125 uM, replicates) was 52.8128% and 27.8666% and the “pGCG formation, % inhbition” value (0.015625 uM, replicates) was 50.6818% and 35.2042%. For the same compound, the “pGCGA formation, % inhbition” value (0.015625 uM, replicates) was 18.8117% and 25.399%, the “pGCGAA formation, % inhbition” value (0.015625 uM, replicates) was 51.4133% and 43.0842% and the “pGCG formation, % inhbition” value (0.03125 uM, replicates) was 80.9404% and 57.9787%. The “pGCGA formation, % inhbition” value (0.03125 uM, replicates) was 58.0899% and 36.3323%, the “pGCGAA formation, % inhbition” value (0.03125 uM, replicates) was 92.0704% and 68.8528% and the “pGCG formation, % inhbition” value (0.0625 uM, replicates) was 96.7556% and 96.0463%. For the same compound, the “pGCGA formation, % inhbition” value (0.0625 uM, replicates) was 77.4419% and 86.4681%, the “pGCGAA formation, % inhbition” value (0.0625 uM, replicates) was 98.2035% and 97.0821% and the “pGCG formation, % inhbition” value (0.125 uM, replicates) was 97.7751% and 97.5727%. For the same compound, the “pGCGA formation, % inhbition” value (0.125 uM, replicates) was 83.7601% and 82.1258%, the “pGCGAA formation, % inhbition” value (0.125 uM, replicates) was 98.5207% and 97.9021% and the “pGCG formation, % inhbition” value (0.25 uM, replicates) was 97.8446% and 96.8207%. For the same compound, the “pGCGA formation, % inhbition” value (0.25 uM, replicates) was 81.8016% and 75.4758%, the “pGCGAA formation, % inhbition” value (0.25 uM, replicates) was 98.388% and 97.2094% and the “pGCG formation, % inhbition” value (0.5 uM, replicates) was 96.68% and 97.1903%. For the same compound, the “pGCGA formation, % inhbition” value (0.5 uM, replicates) was 77.4429% and 81.101%, the “pGCGAA formation, % inhbition” value (0.5 uM, replicates) was 98.095% and 97.9035% and the “pGCG formation, % inhbition” value (1 uM, replicates) was 97.6913% and 97.6125%. The “pGCGA formation, % inhbition” value (1 uM, replicates) was 86.6689% and 82.9875%, the “pGCGAA formation, % inhbition” value (1 uM, replicates) was 98.8723% and 98.1005% and the IC50 (le-11 and tr-14 templates, +1 and +3 site, read-out: IC50 values in the SNI assays) was 17 to 32 nM. The “pACG formation, % inhibition” value [2] was 31.6%, the “pACGAG formation, % inhibition” value [2] was 12.8614% and 26.6827% and the inhibition at 0.00390625 µM (tr-14, +1 site, 0.00390625 uM, replicates, read-out: pACG formation, % inhibition) was 28.1%. The “pACG formation, % inhibition” value [3] was 29.3%, the “pACGAG formation, % inhibition” value [3] was 35.8415% and the inhibition at 0.0078125 µM (tr-14, +1 site, 0.0078125 uM, replicates, read-out: pACG formation, % inhibition) was 41.6%. For the same compound, the inhibition at 0.0078125 µM (tr-14, +1 site, 0.0078125 uM, replicates, read-out: pACGAG formation, % inhibition) was 21.3%, the “pACG formation, % inhibition” value [4] was 48.5% and the “pACGAG formation, % inhibition” value [4] was 57.7598%. For the same compound, the inhibition at 0.015625 µM (tr-14, +1 site, 0.015625 uM, replicates, read-out: pACG formation, % inhibition) was 62.7%, the inhibition at 0.015625 µM (tr-14, +1 site, 0.015625 uM, replicates, read-out: pACGAG formation, % inhibition) was 50.6% and the “pACG formation, % inhibition” value [5] was 79.8%. The “pACGAG formation, % inhibition” value [5] was 90.4225%, the inhibition at 0.03125 µM (tr-14, +1 site, 0.03125 uM, replicates, read-out: pACG formation, % inhibition) was 93.9% and the inhibition at 0.03125 µM (tr-14, +1 site, 0.03125 uM, replicates, read-out: pACGA formation, % inhibition) was 19.2%. For the same compound, the inhibition at 0.03125 µM (tr-14, +1 site, 0.03125 uM, replicates, read-out: pACGAG formation, % inhibition) was 92.2%, the “pACG formation, % inhibition” value [6] was 93.7% and the “pACGAG formation, % inhibition” value [6] was 96.2948%. It also gave an inhibition at 0.0625 µM (tr-14, +1 site, 0.0625 uM, replicates, read-out: pACG formation, % inhibition) of 95.6%, an inhibition at 0.0625 µM (tr-14, +1 site, 0.0625 uM, replicates, read-out: pACGA formation, % inhibition) of 23% and an inhibition at 0.0625 µM (tr-14, +1 site, 0.0625 uM, replicates, read-out: pACGAG formation, % inhibition) of 95.3%. The “pACG formation, % inhibition” value [7] was 94.1%, the “pACGAG formation, % inhibition” value [7] was 96.5623% and the inhibition at 0.125 µM (tr-14, +1 site, 0.125 uM, replicates, read-out: pACG formation, % inhibition) was 95.7%. The inhibition at 0.125 µM (tr-14, +1 site, 0.125 uM, replicates, read-out: pACGA formation, % inhibition) was 18.9%, the inhibition at 0.125 µM (tr-14, +1 site, 0.125 uM, replicates, read-out: pACGAG formation, % inhibition) was 95.9% and the “pACG formation, % inhibition” value [8] was 94.4%. The “pACGAG formation, % inhibition” value [8] was 96.9953%, the inhibition at 0.25 µM (tr-14, +1 site, 0.25 uM, replicates, read-out: pACG formation, % inhibition) was 95.3% and the inhibition at 0.25 µM (tr-14, +1 site, 0.25 uM, replicates, read-out: pACGA formation, % inhibition) was 21.3%. For the same compound, the inhibition at 0.25 µM (tr-14, +1 site, 0.25 uM, replicates, read-out: pACGAG formation, % inhibition) was 96.3%, the “pACG formation, % inhibition” value [9] was 93.2% and the “pACGAG formation, % inhibition” value [9] was 97.0094%. The inhibition at 0.5 µM (tr-14, +1 site, 0.5 uM, replicates, read-out: pACG formation, % inhibition) was 93.9%, the inhibition at 0.5 µM (tr-14, +1 site, 0.5 uM, replicates, read-out: pACGAG formation, % inhibition) was 95.7% and the “pACG formation, % inhibition” value [10] was 91.9%. The “pACGAG formation, % inhibition” value [10] was 97.3064%, the inhibition at 1 µM (tr-14, +1 site, 1 uM, replicates, read-out: pACG formation, % inhibition) was 92.2% and the inhibition at 1 µM (tr-14, +1 site, 1 uM, replicates, read-out: pACGA formation, % inhibition) was 39%. The inhibition at 1 µM (tr-14, +1 site, 1 uM, replicates, read-out: pACGAG formation, % inhibition) was 97%.

From article PMC10590419, “Structural and mechanistic insights into the inhibition of respiratory syncytial virus polymerase by a non-nucleoside inhibitor” (Communications Biology, 2023)
